Earlier results as cited in PMC5613062 (Investigational New Drugs, 2017).
Read-outs that look alike come from different tables or passages of the source.

Columns and labels:
p-glycoprotein (PgP) = tested on: p-glycoprotein (PgP); design: method as in earlier work; settings: ref IB; cited from earlier work
[1] = tested on: Calu-6 human non-small cell lung cancer xenograft; design: method as in earlier work; settings: AZD6244 3 mg/kg BD; AZD2171 […] QD; ref IB; cited from earlier work
CYP2C9 = tested on: CYP2C9; design: method as in earlier work; settings: weak direct inhibitor; ref IB; cited from earlier work
[2] = design: method as in earlier work; settings: rat; ref IB; cited from earlier work
[3] = design: method as in protocol D1532C00004; settings: protocol rationale for QD dosing; ref protocol D1532C00004; cited from earlier work
[4] = design: method as in earlier work; settings: monkey; ref IB; cited from earlier work

In the case of `Cn1cnc2c(F)c(Nc3ccc(Br)cc3Cl)c(C(=O)NOCCO)cc21` [Selumetinib], the “interaction with p-glycoprotein (PgP)” value (p-glycoprotein (PgP)) is given as “substrate but not an inhibitor”, the “Tumor growth inhibition as a % of control” value [1] is given as 48.8 % of control and the IC50 (CYP2C9) is given as 44.7 µM. The Protein binding [2] was 99.7%, the half-life [3] was ~ 6 hours and the Protein binding [4] was 97.7%.
